Assay results from patent US20080075796A1, “Compositions and Methods for Controlling Insects” (TyraTech, Inc., priority 2003, published 2008).
Values joined by “and” are separate entries in the source; they are usually repeats but may differ in a detail not shown here. Equal values may be shown once.

Legend:
Or43a receptor = biological target: T1, Or43a receptor (Drosophila melanogaster, UniProt P81917, L154V); assay: Intracellular Ca^2+ mobilization in Schneider cells expressing Or43a receptor; type: cell-based; details: before vs approximately 150 seconds after treatment
T1 construct: His (from vector pAc5.1/V5-His B) (C); expressed in transfected cells
Description: Intracellular calcium ion concentrations ([Ca^2+]i) are measured by using the acetoxymethyl (AM) ester of the fluorescent indicator fura-2 (Enan, et al., Biochem. Pharmacol vol 51, 447-454). In this study, cells expressing tyramine receptor are grown under standard conditions. A cell suspension is prepared in assay buffer (140 mM NaCL, 10 mM HEPES, 10 mM glucose, 5 mM KCl, 1 mM CaCl2, 1 mM MgCl2) and cell number adjusted to about 2×10^6 cells per ml. Briefly, about 1.0 ml cell suspension (about 2×10^6 cells) is incubated with about 5 μM Fura 2/AM for about 30 min at about 28° C. After incubation, the cells are pelleted at about 3700 rpm for about 10 sec at room temperature and then resuspended in about 1.5 ml assay buffer. [Ca^2+]i changes are analyzed in spectrofluorometer in the presence and absence of test chemicals. Excitation wave lengths are about 340 nm (generated by Ca^2+-bound fura-2) and about 380 nm (corresponding to Ca^2+-free fura-2). The fluorescence intensity is monitored at an emission wave length of about 510 nm. No absorbance of fluorescence artifacts are observed with any of the compounds used. The ratio of about 340/380 nm is calculated and plotted as a function of time.
Intracellular Ca^2+ levels are measured using the method described above in Example 3.
Changes in intracellular Ca^2+ levels are calculated based on the difference between the 340/380 fluorescence ratios before and after approximately 150 seconds of the treatment.

[1] = system: Drosophila melanogaster Or43a olfactory receptor, SEQ ID NO: 4; assay: Interaction of plant essential oils with Or43a receptor binding site (3H-tyramine); details: membranes, FIGS. 16, 17, 19-21
Description: (§1) Total RNA is prepared from the head and antenna of wild type Drosophila melanogaster using Trizol Reagent (Invitrogen). They are homogenized in the Trizol using a motor driven teflon pestle and glass homogenizer. RNA is then prepared as per the manufacturer's instructions and includes removal of proteoglycans and polysaccharides by precipitation. The total RNA is reverse transcribed using oligo-dT as a primer and MuLV reverse transcriptase (Applied Biosystems). […] The Sense oligonucleotides contain Not I sites and the antisense oligonucleotides contain Sac II sites. Both restriction sites are indicated by underlined nucleotide. […] For PCR amplification of Or83b, Vent polymerase (New England Biolabs) is used with the following conditions: about 95° C., about 5 min for about 1 cycle; about 95° C., about 30 sec; and about 70° C., about 90 sec for about 40 cycles; and about 70° C., about 10 min for about 1 cycle. For PCR amplification of Or43a, the Failsafe PCR premix selection kit (Epicentre Technologies) is used with the following conditions: about 95° C., about 5 mill for about 1 cycle; about 95° C., about 30 sec; about 60° C., about 30 sec and about 70° C., about 90 sec for about 50 cycles; and about 70° C., about 10 min for about 1 cycle. […] The PCR products are digested with Sac II and Not I, gel purified and ligated into pAC 5.1/N5 His B (Invitrogen). Inserts are sequenced on both strands by automated fluorescent sequencing (Vanderbilt Cancer Center).
(§2) To address whether Or83b receptor and Or43a receptor contain a specific binding site for tyramine, membranes expressing Or83b receptor or Or43a receptor are prepared from cells expressing either receptor, as described above, and used for competitive binding with ^3H-tyramine. The binding assay protocol is exactly as described for cells expressing TyrR, as described above.
(§3) The cells expressing one of the olfactory receptors are used to investigate the interaction of plant essential oils with these receptors and the signaling cascade downstream of each receptor.
(§4) For the binding activity, membranes are prepared from each cell model and used to investigate the interaction of plant essential oil with the receptor binding site.

farm ants = assay: Repellent effect on farm ants (treated filter paper); type: in vivo; details: for repellency: in words
Description: Adult insect are randomly selected for testing the repellent effect of compositions and are not individually marked. About 5 insects per replicate are used. About 3 replicates are used for each treatment. Untreated control tests are included with only solvent (acetone) application to an equal sized population/replications, held under identical conditions. A filter paper (about 80 cm^2) is treated with the composition (about 100 mg in […] acetone). After about 3 min of air drying, the filter paper is placed in a dish and repellency against insects is performed. Insects are released to the dish, one insect at a time at the far end of the dish. Using one or more stopwatches, the time spent on either the filter paper or the untreated surface of the dish is recorded up to about 300 seconds. Repellency ratio (RR) is calculated as follows: RR=[(time on control surface−time on treated surface)/total time of test].
The repellent effect of various plant essential oils is tested by treating a filter paper with the test oils. After about five minutes at room temperature, the paper is placed in a dish and ants are introduced one at a time. […] Oils are tested alone. Additionally, oils are mixed to form compositions, which are then tested.

[2] = system: Drosophila melanogaster Or83b olfactory receptor, SEQ ID NO: 6; assay: Interaction of plant essential oils with Or83b receptor binding site (3H-tyramine); details: membranes, FIGS. 16, 18-21
Description: as §1, §2, §3, §4

[3] = system: Or83b and Or43a receptors; assay: Interaction of plant essential oils with olfactory receptor binding site (membranes, ^3H-tyramine); design: species or system Drosophila melanogaster; details: membranes incubated with ^3H-tyramine
Description: as §3, §4

[4] = Day 0, test up to about 300 seconds
[5] = Day 0, time on treated surface of up to about 300 seconds

T1 sequence (P81917 whole entry L154V): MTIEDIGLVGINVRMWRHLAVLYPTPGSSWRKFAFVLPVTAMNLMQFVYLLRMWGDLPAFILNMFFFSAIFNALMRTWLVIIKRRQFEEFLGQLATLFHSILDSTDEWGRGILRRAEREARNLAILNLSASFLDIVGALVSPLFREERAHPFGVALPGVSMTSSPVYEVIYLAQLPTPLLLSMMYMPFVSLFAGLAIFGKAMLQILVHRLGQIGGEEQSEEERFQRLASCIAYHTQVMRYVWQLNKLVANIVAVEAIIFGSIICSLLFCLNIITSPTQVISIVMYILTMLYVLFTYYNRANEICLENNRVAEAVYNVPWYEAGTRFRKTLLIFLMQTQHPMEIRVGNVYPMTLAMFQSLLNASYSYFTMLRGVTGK

| Compound | change in intracellular Ca^2+ levels (340/380 fluorescence ratio) (Or43a receptor) | interaction with the olfactory receptor [1] | repellency (farm ants) | interaction with the olfactory receptor [2] | interaction with the olfactory receptors [3] | Repellency %, R % (farm ants; Day 0) [%] | sec. on T surface (farm ants; [4]) [s] | sec. on T surface (farm ants; [5]) [s] | sec. on T surface (farm ants; Day 1) | sec. on T surface (farm ants; Day 1, test up to about 300 seconds) | Repellency %, R % (farm ants; Day 1) [%] |
| --- | --- | --- | --- | --- | --- | --- | --- | --- | --- | --- | --- |
| Cc1ccc(C(C)C)cc1O [carvacrol] | calcium mobilization | interact | display repellency | interact | interact with the olfactory receptors | – | – | – | – | – | – |
| C=C(C)[C@H]1CC=C(C)C(=O)C1 [d-carvone] | calcium mobilization | – | – | – | – | – | – | – | – | – | – |
| C=C(C)[C@H]1CC=C(C)CC1 [d-limonene] | calcium mobilization | interact | – | interact | interact with the olfactory receptors | 62.9 | 55.7 | 55.7 | 136.2 s and 136.4 s and 133.6 s | 136.2 s and 136.4 s and 133.6 s | – |
| CCOC(=O)c1ccccc1C(=O)OCC [diethyl phthalate] | – | interact | – | interact | interact with the olfactory receptors | – | – | – | – | – | – |
| C=CC(C)(O)CCC=C(C)C (stereo not drawn) [linalool] | calcium mobilization | interact | – | interact | interact with the olfactory receptors | 60.7 | – | 59.0 | 111.2 s | – | 25.9 |
| C=CC(C)(CCC=C(C)C)OC(=O)c1ccccc1N (stereo not drawn) [linalyl anthranilate] | calcium mobilization | interact | – | interact | interact with the olfactory receptors | 69.2 | – | 46.2 | 104.6 s | – | 30.7 |
| Cc1ccc(C(C)C)cc1 [p-cymene] | calcium mobilization | interact | – | interact | interact with the olfactory receptors | 42.5 | – | 86.2 | 133.6 s | – | 10.9 |
| C=C(C)[C@@H]1CC=C(CO)CC1 [perillyl alcohol] | calcium mobilization | – | – | – | – | – | – | – | – | – | – |
| O=Cc1ccc2c(c1)OCO2 [piperonal] | decreases the intracellular Ca^2+ levels | interact | – | interact | interact with the olfactory receptors | 37.6 | – | 93.6 | 125.8 s | – | 16.1 |
| OCc1ccc2c(c1)OCO2 [piperonyl alcohol] | calcium mobilization | interact | – | interact | interact with the olfactory receptors | – | – | – | – | – | – |
| NCc1ccc2c(c1)OCO2 [piperonyl amine] | calcium mobilization | interact | – | interact | interact with the olfactory receptors | 48.3 | – | 77.6 | 111.2 s | – | 25.9 |
| C=C[C@H]1C[N@@]2CC[C@H]1C[C@H]2[C@H](O)c1ccnc2ccc(OC)cc12 [quinine] | calcium mobilization | – | – | – | – | – | – | – | – | – | – |
| O=C1C=CC(=O)C=C1 [quinone] | – | interact | – | interact | interact with the olfactory receptors | – | – | – | – | – | – |
| C=C1CCC2(C(C)C)CC12 (stereo not drawn) [sabinene] | calcium mobilization | interact | display repellency | interact | interact with the olfactory receptors | – | – | – | – | – | – |
| C/C=C/c1ccc(OC)cc1 [t-anethole] | – | interact | – | interact | interact with the olfactory receptors | – | – | – | – | – | – |
| CC1=CCC2CC1C2(C)C (stereo not drawn) [α-pinene] | calcium mobilization | interact | – | interact | interact with the olfactory receptors | 48.4 | – | 77.4 | 139.2 s | – | 07.2 |
| CC1=CCC(C(C)(C)O)CC1 (stereo not drawn) [α-terpineol] | – | interact | – | interact | interact with the olfactory receptors | 26.9 | – | 109.6 | – | – | – |
| CC(C)[C@]12CC(=O)[C@H](C)[C@H]1C2 [α-thujone] | calcium mobilization | interact | display repellency | interact | interact with the olfactory receptors | – | – | – | – | – | – |
| l-carvone | calcium mobilization | – | – | – | – | – | – | – | – | – | – |
| lindenol [listing 1 of 2 here] | – | interact | – | interact | – | 04.0 | 144.2 | – | – | – | – |
| lindenol [listing 2 of 2 here] | calcium mobilization | – | – | – | interact with the olfactory receptors | – | – | 144.2 | – | – | – |
| terpinene 900 [listing 1 of 2 here] | – | interact | – | interact | – | – | – | – | – | – | – |
| terpinene 900 [listing 2 of 2 here] | calcium mobilization | – | – | – | interact with the olfactory receptors | – | – | – | – | – | – |
